# System: 422866-222-R5-J1-PDC spheroids with HUVEC/MSC, viability
# Assay: Anticancer human tumor 422866-222-R5-J1-PDC patient-derived pancreatic adenocarcinoma cell line growth inhibition [GQUAD]
# Conditions: for IC50: curve of first compound; for viability, T/C: stronger effect = lower value
# Procedure, shortened: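 Multi-cell-type spheroids of tumor cells with HUVEC and mesenchymal stem cells, treated with drug combinations. Concentrations descend in half-log steps from near clinical Cmax, or from 10 microM where Cmax is unknown; viability read-out.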
# [1] = second compound 0.0316 µM, first compound 0.0316 µM
# [2] = second compound 0.0316 µM, first compound 0.1 µM
# [3] = second compound 0.0316 µM, first compound 0.316 µM
# [4] = second compound 0.0316 µM, first compound 1 µM
# [5] = second compound 0.0316 µM, first compound 3.16 µM
# [6] = second compound 0.0316 µM, first compound 10 µM
# [7] = second compound 0.1 µM, first compound 0.0316 µM
# [8] = second compound 0.1 µM, first compound 0.1 µM
# [9] = second compound 0.1 µM, first compound 0.316 µM
# [10] = second compound 0.1 µM, first compound 1 µM
# [11] = second compound 0.1 µM, first compound 3.16 µM
# [12] = second compound 0.1 µM, first compound 10 µM
# [13] = second compound 0.316 µM, first compound 0.0316 µM
# [14] = second compound 0.316 µM, first compound 0.1 µM
# [15] = second compound 0.316 µM, first compound 0.316 µM
# [16] = second compound 0.316 µM, first compound 1 µM
# [17] = second compound 0.316 µM, first compound 3.16 µM
# [18] = second compound 0.316 µM, first compound 10 µM
# [19] = second compound 1 µM, first compound 0.0316 µM
# [20] = second compound 1 µM, first compound 0.1 µM
# [21] = second compound 1 µM, first compound 0.316 µM
# [22] = second compound 1 µM, first compound 1 µM
# [23] = second compound 1 µM, first compound 3.16 µM
# [24] = second compound 1 µM, first compound 10 µM
# [25] = second compound 3.16 µM, first compound 0.0316 µM
# [26] = second compound 3.16 µM, first compound 0.1 µM
# [27] = second compound 3.16 µM, first compound 0.316 µM
# [28] = second compound 3.16 µM, first compound 1 µM
# [29] = second compound 3.16 µM, first compound 3.16 µM
# [30] = second compound 3.16 µM, first compound 10 µM
# [31] = second compound 10 µM, first compound 0.0316 µM
# [32] = second compound 10 µM, first compound 0.1 µM
# [33] = second compound 10 µM, first compound 0.316 µM
# [34] = second compound 10 µM, first compound 1 µM
# [35] = second compound 10 µM, first compound 3.16 µM
# [36] = second compound 10 µM, first compound 10 µM
# 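Further: spheroids exposed to compounds for seven days before reading.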
# 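Wherever viability, T/C is given: percent viability relative to DMSO vehicle control taken as 100%.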
smiles,measurement,setting,value
C=CCn1c(=O)c2cnc(Nc3ccc(N4CCN(C)CC4)cc3)nc2n1-c1cccc(C(C)(C)O)n1 + CN(C)c1ccc(Nc2c3ccc(NC(=O)CCN4CCCC4)cc3nc3cc(NC(=O)CCN4CCCC4)ccc23)cc1,IC50,second compound 0.0316 µM,459 nM
same,IC50,second compound 0.1 µM,682 nM
same,IC50,second compound 0.316 µM,489 nM
same,IC50,second compound 1 µM,548 nM
same,IC50,second compound 3.16 µM,601 nM
same,IC50,second compound 10 µM,1710 nM
same,"viability, T/C",[1],109%
same,"viability, T/C",[2],123%
same,"viability, T/C",[3],56.4%
same,"viability, T/C",[4],37.7%
same,"viability, T/C",[5],40.3%
same,"viability, T/C",[6],31.5%
same,"viability, T/C",[7],106%
same,"viability, T/C",[8],96.1%
same,"viability, T/C",[9],61.5%
same,"viability, T/C",[10],47.3%
same,"viability, T/C",[11],34.2%
same,"viability, T/C",[12],37.5%
same,"viability, T/C",[13],128%
same,"viability, T/C",[14],95.1%
same,"viability, T/C",[15],57.1%
same,"viability, T/C",[16],38.4%
same,"viability, T/C",[17],34.9%
same,"viability, T/C",[18],39.5%
same,"viability, T/C",[19],95.3%
same,"viability, T/C",[20],77.2%
same,"viability, T/C",[21],62.3%
same,"viability, T/C",[22],35.4%
same,"viability, T/C",[23],39.6%
same,"viability, T/C",[24],34.2%
same,"viability, T/C",[25],99.7%
same,"viability, T/C",[26],87.2%
same,"viability, T/C",[27],56.7%
same,"viability, T/C",[28],42%
same,"viability, T/C",[29],48.2%
same,"viability, T/C",[30],42.6%
same,"viability, T/C",[31],95%
same,"viability, T/C",[32],80%
same,"viability, T/C",[33],62.3%
same,"viability, T/C",[34],45.5%
same,"viability, T/C",[35],56.3%
same,"viability, T/C",[36],45.1%
COc1ncnc(C2CC2)c1-c1ncc2cnn(Cc3ccc(-c4nc(C(F)(F)F)cn4C(C)C)cc3)c2n1 + CN(C)c1ccc(Nc2c3ccc(NC(=O)CCN4CCCC4)cc3nc3cc(NC(=O)CCN4CCCC4)ccc23)cc1,IC50,second compound 0.0316 µM,> 10000 nM
same,IC50,second compound 0.1 µM,> 10000 nM
same,IC50,second compound 0.316 µM,> 10000 nM
same,IC50,second compound 1 µM,> 10000 nM
same,IC50,second compound 3.16 µM,> 10000 nM
same,IC50,second compound 10 µM,> 10000 nM
same,"viability, T/C",[1],92.7%
same,"viability, T/C",[2],88.3%
same,"viability, T/C",[3],124%
same,"viability, T/C",[4],93%
same,"viability, T/C",[5],90%
same,"viability, T/C",[6],104%
same,"viability, T/C",[7],116%
same,"viability, T/C",[8],104%
same,"viability, T/C",[9],109%
same,"viability, T/C",[10],94.9%
same,"viability, T/C",[11],100%
same,"viability, T/C",[12],100%
same,"viability, T/C",[13],104%
same,"viability, T/C",[14],89.8%
same,"viability, T/C",[15],100%
same,"viability, T/C",[16],94.3%
same,"viability, T/C",[17],106%
same,"viability, T/C",[18],100%
same,"viability, T/C",[19],90.7%
same,"viability, T/C",[20],92.2%
same,"viability, T/C",[21],101%
same,"viability, T/C",[22],90.9%
same,"viability, T/C",[23],97.1%
same,"viability, T/C",[24],84.5%
same,"viability, T/C",[25],85.8%
same,"viability, T/C",[26],102%
same,"viability, T/C",[27],101%
same,"viability, T/C",[28],92.9%
same,"viability, T/C",[29],103%
same,"viability, T/C",[30],69.9%
same,"viability, T/C",[31],98.6%
same,"viability, T/C",[32],109%
same,"viability, T/C",[33],104%
same,"viability, T/C",[34],69.3%
same,"viability, T/C",[35],86.8%
same,"viability, T/C",[36],58%
